Measured values taken from US5753617A, “Peptide inhibitors of cellular adhesion” (Centocor, Inc., priority 1995, dated 1998).
Where a SMILES comes first, the peptide text is derived from it. Bridges are numbered along the chain shown (N, C = ends). [ ]: non-standard residue; d: D form. NMeF = CN[C@@H](Cc1ccccc1)C(=O)O; dTic = O=C(O)[C@H]1Cc2ccccc2CN1; dThz = O=C(O)[C@H]1CSCN1

Target: T1, P-selectin (Homo sapiens, UniProt P16109)
T1 construct: P-selectin is isolated from human platelet lysates; from tissue; host or cells: human platelets (outdated platelet packs from a blood bank)
T1 sequence (P16109 42-830): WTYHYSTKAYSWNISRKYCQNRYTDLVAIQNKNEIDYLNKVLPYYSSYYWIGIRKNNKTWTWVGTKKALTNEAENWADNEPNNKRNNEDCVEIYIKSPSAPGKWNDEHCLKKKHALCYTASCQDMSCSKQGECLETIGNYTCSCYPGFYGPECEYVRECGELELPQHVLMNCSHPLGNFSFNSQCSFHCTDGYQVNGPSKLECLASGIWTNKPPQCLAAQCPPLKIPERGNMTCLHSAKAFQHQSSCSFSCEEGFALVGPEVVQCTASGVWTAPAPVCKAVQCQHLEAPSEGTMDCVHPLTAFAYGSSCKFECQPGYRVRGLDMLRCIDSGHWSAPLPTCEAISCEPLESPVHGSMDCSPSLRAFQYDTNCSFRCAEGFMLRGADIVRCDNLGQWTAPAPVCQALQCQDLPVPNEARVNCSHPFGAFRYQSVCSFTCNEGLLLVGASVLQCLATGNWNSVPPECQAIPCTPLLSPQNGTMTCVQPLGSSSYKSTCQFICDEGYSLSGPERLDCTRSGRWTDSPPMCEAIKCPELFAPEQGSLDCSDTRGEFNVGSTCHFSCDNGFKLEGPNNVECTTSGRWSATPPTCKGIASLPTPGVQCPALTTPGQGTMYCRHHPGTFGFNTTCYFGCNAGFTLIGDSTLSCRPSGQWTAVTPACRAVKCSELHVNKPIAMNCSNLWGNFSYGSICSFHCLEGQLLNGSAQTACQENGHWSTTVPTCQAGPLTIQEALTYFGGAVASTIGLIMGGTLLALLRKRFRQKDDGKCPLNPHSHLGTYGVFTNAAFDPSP
Assay: Inhibition of human neutrophil adhesion to purified P-selectin immobilized on plastic wells
Type: cell-based
Conditions: inhibiting the binding of human neutrophils to P-selectin
Text: Peptides can be screened for their ability to inhibit adhesion to cells, for example, neutrophil adhesion to purified P-selectin immobilized on plastic wells, using the assay described by Geng, et al., Nature 343, 757-760 (1990). Human neutrophils are isolated from heparinized whole blood by density gradient centrifugation on Mono-Poly resolving media, Flow Laboratories. Neutrophil suspensions are greater than 98% pure and greater than 95% viable by trypan blue exclusion. For adhesion assays, neutrophils are suspended at a concentration of 2×10^6 cells/mL in Hanks' balanced salt solution containing 1.26 mM Ca^2+ and 0.81 mM Mg^2+ (HBSS, Gibco) with […] human serum albumin (HBSS/HSA). Adhesion assays are conducted in triplicate in 96-well microliter plates, Corning, incubated at 4° C. overnight with 50 microliters of various protein solutions. P-selectin is isolated from human platelet lysates by immunoaffinity chromatography on antibody S12-Sepharose™ and ion-exchange chromatography on a Mono-Q™ column (FLPC, Pharmacia Fine Chemicals), as follows. Outdated human platelet packs (100 units) obtained from a blood bank and stored at 4° C. are pooled, adjusted to 5 mM EDTA at pH 7.5, centrifuged at 4,000 rpm for 30 minutes in 1 liter bottles, then washed three times with 1 liter of 0.1M NaCl, 20 mM Tris pH 7.5 (TBS), 5 mM EDTA, 5 mM benzamidine. The pellets are then resuspended in a minimum amount of wash buffer and made 1 mM in DIFP, then frozen in 50 mL screwtop tubes at -80° C. The frozen platelets are thawed and resuspended in 50 mL TBS, 5 mM benzamidine, 5 mM EDTA pH 7.5, […]. The suspension is frozen and thawed two times in a dry ice-acetone bath using a 600 mL lyophilizing flask, then homogenized in a glass/teflon mortar and pestle and made 1 mM in DIFP. The NaCl concentration is adjusted to 0.5M with a stock solution of 4M NaCl. After stirring the suspension at 4° C., it is centrifuged in polycarbonate tubes at 33,000 rpm for 60 minutes at 4° C. The supernatant (0.5M NaCl wash) is removed and saved; this supernatant contains the soluble form of P-selectin. Care is taken not to remove the top part of the pellet with the supernatant. The pellets are then homogenized in extraction buffer (TBS, 5 mM benzamidine, 5 mM EDTA, pH 7.5, 100 μM leupeptin, 2% Triton X-100). After centrifugation at 19,500 rpm for 25 minutes at 4° C., the supernatant is removed. The extraction procedure is repeated with the pellet and the supernatant is combined with the first supernatant. The combined extracts, which contain the membrane form of P-selectin, are adjusted to 0.5M NaCl. The soluble fraction (0.5M NaCl wash) and the membrane extract (also adjusted to 0.5M NaCl) are absorbed with separate pools of the monoclonal antibody S12 (directed to P-selectin) previously couple […]) at 5 mg/mL for 2 hours at 4° C. After letting the resins settle, the supernatants are removed. The S12 Affigel containing bound GMP-140 is then loaded into a column and washed overnight at 4° C. with 400 mL of 0.5M NaCl, 20 mM Tris pH 7.5, 0.01% Lubrol PX. Bound P-selectin is eluted from the S12 Affigel with 100 mL of 80% ethylene glycol, 1 mM MES pH 6.0, 0.01% Lubrol PX. Peak fractions with absorbance at 280 nm are pooled. Eluates are dialyzed against TBS with 0.05% Lubrol, then applied to a Mono Q column (FPLC from Pharmacia). The concentrated protein is step eluted with 2M NaCl, 20 mM Tris pH 7.5 (plus 0.05% Lubrol PX for the membrane fraction). Peak fractions are dialyzed into TBS pH 7.5 (plus 0.05% Lubrol PX for the membrane fraction). P-selectin is plated at 5 micrograms/mL and the control proteins: human serum albumin (Alb), platelet glycoprotein IIb/IIIa (IIb), von Willebrand factor (vWF), fibrinogen (FIB), thrombomodulin (TM), gelatin (GEL) or human serum (HS), are added at 50 micrograms/mL. […]

| IC50 | Compound |
| --- | --- |
| 186 µM | CC(C)[C@@H](NC(=O)[C@@H](Cc1c[nH]c2ccccc12)NC(=O)[C@H](NC(=O)[C@@H](Cc1c[nH]c2ccccc12)NC(=O)[C@H]1CSSC[C@@H](NC(=O)[C@@H](CCCCN)NC(=O)[C@H](N)CCCNC(=N)N)C(=O)NCC(=O)N2CSC[C@@H]2C(=O)N1)[C@H](C)O)C(N)=O [(58)] (H-[dR][dK][dC]G[dThz][dC][dW][dT][dW][dV]-NH2; disulfide 3-6) |
| 18.3 µM | CC(C)[C@@H](NC(=O)[C@@H](Cc1c[nH]c2ccccc12)NC(=O)[C@H](NC(=O)[C@@H](Cc1c[nH]c2ccccc12)NC(=O)[C@H]1CSSC[C@@H](NC(=O)[C@@H](CCCCN)NC(=O)[C@H](N)CCCNC(=N)N)C(=O)NCC(=O)N2Cc3ccccc3C[C@@H]2C(=O)N1)[C@H](C)O)C(N)=O [(59)] (H-[dR][dK][dC]G[dTic][dC][dW][dT][dW][dV]-NH2; disulfide 3-6) |
| 1.4 µM | CC(C)[C@@H](NC(=O)[C@@H](Cc1c[nH]c2ccccc12)NC(=O)[C@H](NC(=O)[C@@H](Cc1c[nH]c2ccccc12)NC(=O)[C@H]1CSSC[C@@H](NC(=O)[C@@H](CCCCN)NC(=O)[C@H](N)CCCNC(=N)N)C(=O)NCC(=O)N[C@@H](Cc2c[nH]c3ccccc23)C(=O)N1)[C@H](C)O)C(N)=O [(60)] (H-[dR][dK][dC]GW[dC][dW][dT][dW][dV]-NH2; disulfide 3-6) |
| 65.4 µM | CC(C)[C@@H](NC(=O)[C@@H](Cc1c[nH]cn1)NC(=O)[C@H](NC(=O)[C@@H](Cc1c[nH]c2ccccc12)NC(=O)[C@H]1CSSC[C@@H](NC(=O)[C@@H](CCCCN)NC(=O)[C@H](N)CCCNC(=N)N)C(=O)NCC(=O)N[C@@H](Cc2ccccc2)C(=O)N1)[C@H](C)O)C(N)=O [(61)] (H-[dR][dK][dC]GF[dC][dW][dT][dH][dV]-NH2; disulfide 3-6) |
| 533 µM | CC(C)[C@@H](NC(=O)[C@@H](CCCCN)NC(=O)[C@H](NC(=O)[C@@H](Cc1c[nH]c2ccccc12)NC(=O)[C@H]1CSSC[C@@H](NC(=O)[C@@H](CCCCN)NC(=O)[C@H](N)CCCNC(=N)N)C(=O)NCC(=O)N[C@@H](Cc2ccccc2)C(=O)N1)[C@H](C)O)C(N)=O [(62)] (H-[dR][dK][dC]GF[dC][dW][dT][dK][dV]-NH2; disulfide 3-6) |
| 19.3 µM | CC(C)[C@@H](NC(=O)[C@@H](Cc1ccc(O)cc1)NC(=O)[C@H](NC(=O)[C@@H](Cc1c[nH]c2ccccc12)NC(=O)[C@H]1CSSC[C@@H](NC(=O)[C@@H](CCCCN)NC(=O)[C@H](N)CCCNC(=N)N)C(=O)NCC(=O)N[C@@H](Cc2ccccc2)C(=O)N1)[C@H](C)O)C(N)=O [(63)] (H-[dR][dK][dC]GF[dC][dW][dT][dY][dV]-NH2; disulfide 3-6) |
| 46.2 µM | CC(C)[C@@H](NC(=O)[C@@H](Cc1c[nH]c2ccccc12)NC(=O)[C@H](NC(=O)[C@@H](Cc1ccc(O)cc1)NC(=O)[C@H]1CSSC[C@@H](NC(=O)[C@@H](CCCCN)NC(=O)[C@H](N)CCCNC(=N)N)C(=O)NCC(=O)N[C@@H](Cc2ccccc2)C(=O)N1)[C@H](C)O)C(N)=O [(64)] (H-[dR][dK][dC]GF[dC][dY][dT][dW][dV]-NH2; disulfide 3-6) |
| 11.1 µM | CC[C@@H](C)[C@H]1NC(=O)[C@H]([C@@H](C)CC)NC(=O)[C@H](NC(=O)[C@@H](CCCCN)NC(=O)[C@H](N)CCCNC(=N)N)CSSC[C@H](C(=O)N[C@H](Cc2c[nH]c3ccccc23)C(=O)N[C@@H](C(=O)N[C@H](Cc2c[nH]c3ccccc23)C(=O)N[C@@H](C(N)=O)C(C)C)[C@H](C)O)NC1=O [(67)] (H-[dR][dK][dC]I[dI][dC][dW][dT][dW][dV]-NH2; disulfide 3-6) |
| 37.7 µM | CC(C)[C@@H](NC(=O)[C@@H](Cc1c[nH]c2ccccc12)NC(=O)[C@H](NC(=O)[C@@H](Cc1c[nH]c2ccccc12)NC(=O)[C@H]1CSSC[C@@H](NC(=O)[C@@H](CCCCN)NC(=O)[C@H](N)CCCNC(=N)N)C(=O)NCC(=O)N(C)[C@@H](Cc2ccccc2)C(=O)N1)[C@H](C)O)C(N)=O [(72)] (H-[dR][dK][dC]G[NMeF][dC][dW][dT][dW][dV]-NH2; disulfide 3-6) |
